Assays:
DGGCs [1] = assay: Ca2+ imaging with calcium green-1 in DGGCs of hippocampal slices, whole-cell mode; assay type: cell-based, mice; conditions: for peak calcium green-1 fluorescence increase: M1R stimulation
Experimental: (§1) Hippocampal Slice Preparation. […] Hippocampal slices were maintained in oxygenated ACSF at 30° C. for 60 min and experiments were performed at 25° C.
Ca2^+ Imaging. Concurrent with patch-clamp electrophysiology, neurons in slices were also imaged (Nikon FN-1, 40× water-immersion objective) via the fluorescent Ca^2+-reporter dye calcium green-1. As a hexapotassium salt, the dye (10 μm) was added to the intracellular patch pipette solution and neurons were patched under whole-cell clamp, as described above. Cells were loaded for 10 min before image acquisition. Fluorescence intensity was obtained using a SOLA Light Engine illumination source (Lumencor) with an output of 3.5 W through a 3-mm-diameter liquid light guide through a Nikon ET-GFP filter. Nikon Elements software was used for image acquisition through a QIClick CCD camera (QImaging). Images were acquired with an exposure time of 200 ms every 2 min using a single-channel, 12-bit rate and no binning. The shutter was closed between each acquisition. For each cell, the corrected total cell fluorescence was measured as the integrated density intensity—(cell area*mean background emission). Ca^2+ signals were measured as the change in fluorescence relative to the baseline fluorescence (ΔF/F0). Averages of four images were thresholded at 10%, masked using a highly averaged image of the cell, and encoded with a pseudocolor look-up table. Group cell fluorescence data were averaged in comparison with normalized intensity at each time point.

DGGCs [2] = assay: Patch-clamp / current-clamp recordings of DGGCs in hippocampal slices (action potentials, AHP, IM amplitude); assay type: cell-based, mice
Experimental: as §1

TRPC4/5 channels = conditions: description from literature; cited from earlier work
other TRPC channels = conditions: description; cited from earlier work
TRPC1/4/5 channels = conditions: Rubaiy et al., 2017; cited from earlier work
seizure susceptibility [3] = assay: Single subconvulsant PTZ challenge 7 days after CCI-TBI; assay type: in vivo, mice; conditions: PTZ 50 mg/kg single dose 7 days after TBI, n=14
Excerpt: TBI facilitates TRPC-dependent seizure susceptibility.
Controlled cortical impact traumatic brain injury. […] Apnea episodes lasted between 10-60 sec after impact.
Seizure susceptibility assays. Pentylenetetrazol kindling model.

seizure susceptibility [4] = assay: PTZ kindling after sham or CCI-TBI
Experimental: The fact that only a portion of TBI cases become susceptible to epileptic seizures is a yet unanswered phenomenon in both preclinical and clinical studies. Therefore, we investigated seizure susceptibility within the CCI-TBI model to gain a greater understanding as to the etiology of hyperexcitability spread occurring post-injury. […] In our seizure susceptibility paradigm, 1 or 7 days after experimental procedure, mice were challenged with a subconvulsant dose of PTZ (35 mg/kg s.c.) once-daily to elicit kindling epileptogenesis (FIG. 6A). The progression of motor seizure behavior was observed and timed by direct observation linked to EEG activity (FIG. 6B).
We wished to understand if the TRPC channel upregulation after TBI could be targeted to impede epileptogenic activity. […] Seizure susceptibility was standardized according to the latency to forelimb clonus lasting greater than 5 sec.
Controlled cortical impact traumatic brain injury. The controlled cortical impact (CCI) traumatic brain injury (TBI) model was applied, with a closed skull impact approach. The CCI model causes TBI, but the skull remains intact with minimal hematoma. This type of brain injury model most closely simulates the TBI experienced during blunt-head injuries from vehicular accidents or falls. Mice were anesthetized with isoflurane (3% induction, 1% maintenance) in 100% O2. Body temperature of 37° C. was maintained using a temperature-controlled heated surgical table. The skull was fixed with ear-bars into a stereotaxic frame. A small midline incision was made on the scalp using aseptic surgical techniques. Impact was delivered by cylindrical probe of 5 mm diameter with an Impact One neurotrauma impactor (Leica Biosystems). A calibrated impact was delivered at 4.5 m/sec to a depth of 1 mm and 0.5 sec dwell time to the right parietal cortex (−1.8 mm ML, +2.0 mm AP, −1.0 mm DV). […] The scalp was then sutured closed and mice were placed in a warming recirculation unit and monitored until fully awake and moving freely. […] For consistency, the left hemisphere of both sham and TBI mice is designated as “contralateral” brain, and the right hemisphere is referred to as “ipsilateral”, despite no impact injury occurring in sham mice.
In vivo electroencephalograms. To determine seizure frequency and record brain susceptibility to seizures, mice were implanted with electroencephalogram (EEG) electrodes 24 hr after sham or TBI. A three-channel tethered EEG system was used. The electrode pedestal (P1 Technologies) was secured to the skull with three anchored dental screws and connected to a preamplifier with gain of 25. The three leads were inserted over the left frontal cortex, left parietal cortex, and depth electrode lead into the hippocampus. The Stellate Harmonie acquisition hardware and software were used to collect coincident video and EEG activity. EEGs were inspected for presence of epileptiform spikes and seizures.
Seizure susceptibility assays. Pentylenetetrazol kindling model. Seizure susceptibility was tested with the GABAA receptor antagonist pentylenetetrazol (PTZ) for progression of motor seizure activity. Mice were injected with PTZ (35 mg/kg, s.c.) once per day and scored for motor behavioral seizures.

DGGCs [5] = assay: GCaMP6f brain slice Ca2+ imaging of DGGCs after sham or CCI-TBI; assay type: cell-based, mice; conditions: for Ca2+ influx events per neuron: 0.3 mM ACh 5 min; for duration of Ca2+ influx / peak amplitude of Ca2+ influx: ACh
Excerpt: Neuromodulation of TRPC generates robust Ca2+ influx and facilitates neuronal hyperexcitability. […] To assess the post-injury effect of TRPC channel upregulation on neurons, we used Ca2+ imaging in brain slice to measure excitability as a product of intracellular Ca2+ gating by TRPC1/4/5 channels (FIG. 4). […] Transgenic mice with the GCaMP6f transgene were used to detect changes in cellular Ca2+-activated fluorescence. We hypothesized that DGGC activity increases due to muscarinic stimulation with ACh or direct activation of TRPC4-containing channels with EA. Sensitivity was tested by bath perfusion of ACh or EA to the slice for 5 minutes during Ca2+ imaging to quantify peak amplitude of GCaMP6f fluorescence per cell, duration of Ca2+ influx, and the field-frequency of events (FIG. 4).
Brain slice Ca2+ imaging. Transverse slices (300 μm) of hippocampus were cut with a vibratome (Thermo Scientific Microm HM650V) from Cre-CamK2+/GCamp6f+/− mice. […] Hippocampal slices were maintained in oxygenated ACSF at 30° C. for 60 min, and experiments performed at 28° C. […] Neurons were visually identified with a Nikon FN-1 microscope equipped with a 40× water-immersion objective and infrared differential interference contrast. GCaMP6f fluorescence was obtained using a SOLA Light Engine Illumination source (Lumecor) with an output of 3.5W through a 3 mm diameter liquid light guide through a Nikon ET-GFP filter. Nikon Elements software was used for image acquisition through a QIClick CCD camera (Qlmaging) with a Uniblitz Model VMM-D 1 shutter driver. Baseline time series of the DG granule layer were acquired in the presence of bath solution perfusion for 2 min. […] Images were acquired in time series with an exposure time of 200 ms at 2-10 fps at 12-bit rate and no binning. Time-series image stacks were processed with ImageJ. Images were background subtracted using the mean of the 5% lowest pixel values. Ca2+ signal events were quantified for each cell as change in fluorescence divided by the baseline fluorescence (ΔF/FO) after background subtraction. ROI signals were detrended before quantification to account for drift due to gradual photobleaching of the background.

[6] = IP3 receptor blockade, xestospongin C 10 μm
[7] = TRPC4/5 channels blocked, control or plus 77-LH-28-1 3 μM
[8] = PTZ daily from 1 day post-TBI, TBI
[9] = PTZ daily from 1 day post-procedure, sham
[10] = PTZ daily from 7 days after TBI, TBI
[11] = PTZ daily from 7 days after procedure, sham

SMILES: C1CCC[C@H]2CCCN3CC[C@@H](CCCCCC[C@@H]4CCCN5CC[C@@H](CC1)O[C@@H]45)O[C@@H]23 [xestospongin C]
- rises in [Ca2+]i on mAChR stimulation (DGGCs [1]; [6]): substantial rises
- action potential firing frequency on mAChR stimulation (DGGCs [2]; [6]): increased action potential firing frequency
- M1R-mediated enhancement of IM (DGGCs [2]; xestospongin C 10 μm in the pipette): 1.67±0.14 fold

SMILES: Cc1cc(N2CCCCC2)nc2ccccc12 [ML204, 4-Methyl-2-(1-piperidinyl)quinolone]
- effect on TRPC4/5 channels (TRPC4/5 channels): selectively inhibit
- maximum calcium-green 1 emission on muscarinic stimulation (DGGCs [1]; M084 and ML204 together, 10 μm): 1.61±0.21 fold
- blockage of other TRPC channels (other TRPC channels): no appreciable blockage

SMILES: Cn1c(=O)n(CCCO)c(=O)c2c1nc(Oc1cccc(OC(F)(F)F)c1)n2Cc1ccc(Cl)cc1 [Pico145]
- potency on TRPC1/4/5 channels (TRPC1/4/5 channels): picomolar potency

SMILES: CCCCCCCCCCCCCCCCCCOCC(COP(=O)([O-])OCC[N+](C)(C)C)OC (stereo not drawn) [edelfosine]
- maximum dye emission over that before agonist (DGGCs [1]; slices preincubated with edelfosine 10 μm, then 77-LH-28-1): 1.15±0.08 fold

SMILES: CCCCC1CCN(CCCN2C(=O)CCc3ccccc32)CC1 [77-LH-28-1]
- peak calcium green-1 fluorescence increase (DGGCs [1]; 77-LH-28-1 3 μm): 2.91±0.41 fold
- peak calcium green-1 fluorescence increase (DGGCs [1]; 77-LH-28-1 10 μm): 4.27±0.95 fold
- enhancement of IM amplitude (DGGCs [2]; 77-LH-28-1 3 μm with TRPC4/5 channels blocked): 1.83 ±0.14 fold
- action potential firing rate (DGGCs [2]; 77-LH-28-1 3 μm, no TRPC4/5 blocker): significantly increased
- enhancement of IM amplitude (DGGCs [2]; M1R stimulation in the absence of TRPC4/5 channel blockers): 1.92±0.10 fold
- action potential threshold (DGGCs [2]; M084 10 μm + 77-LH-28-1 3 μm, n=8 cells): −46.1±1.5 mV
- AHP amplitude (DGGCs [2]; [7]): 13.6 ± 0.9 mV
- AHP area (DGGCs [2]; [7]): 264.8 ± 21.5 ms* mV
- AHP decay (DGGCs [2]; [7]): 17.1 ± 0.8 ms

SMILES: C1CCc2nnnn2CC1 [PTZ, pentylenetetrazol]
- mice acquiring myoclonic jerks (seizure susceptibility [3]): 100%
- mice with forelimb clonus seizures (seizure susceptibility [3]): 86%
- latency to myoclonic jerks (seizure susceptibility [4]; PTZ 35 mg/kg s.c. daily from 1 day post-TBI, TBI): 4.4 ± 0.6 days
- latency to myoclonic jerks (seizure susceptibility [4]; PTZ 35 mg/kg s.c. daily from 1 day post-procedure, sham): 9.5 ± 0.6 days
- latency to forelimb clonus (seizure susceptibility [4]; [8]): 5.6 ± 0.7 days
- latency to tonic-clonic seizure (seizure susceptibility [4]; [8]): 7.9 ± 0.7 days
- latency to forelimb clonus (seizure susceptibility [4]; [9]): 11.3 ± 0.7 days
- latency to tonic-clonic seizure (seizure susceptibility [4]; [9]): 12.5 ± 0.8 days
- latency to forelimb clonus (seizure susceptibility [4]; [10]): 4.3 ± 0.8 days
- latency to myoclonic jerks (seizure susceptibility [4]; [10]): 3.6 ± 0.7 days
- latency to tonic-clonic seizure (seizure susceptibility [4]; [10]): 5.6 ± 1.2 days
- latency to forelimb clonus (seizure susceptibility [4]; [11]): 12.0 ± 0.6 days
- latency to myoclonic jerks (seizure susceptibility [4]; [11]): 9.8 ± 0.4 days
- latency to tonic-clonic seizure (seizure susceptibility [4]; [11]): 13.1 ± 0.6 days
- mice with lethal seizures on second tonic-clonic occurrence (seizure susceptibility [4]; PTZ kindling from 1 day post-TBI, TBI group): five out of eight

SMILES: CC(=O)OCC[N+](C)(C)C [ACh, acetylcholine]
- Ca2+ influx events per neuron (DGGCs [5]; contralateral TBI): 2.6±0.2 events/neuron
- Ca2+ influx events per neuron (DGGCs [5]; ipsilateral TBI): 4.3±0.2 events/neuron
- Ca2+ influx events per neuron (DGGCs [5]; sham control tissue): 1.8±0.3 events/neuron
- duration of Ca2+ influx (DGGCs [5]; contralateral DGGCs): 6.12 ± 0.19 s
- peak amplitude of Ca2+ influx (DGGCs [5]; contralateral DGGCs): 1.70±0.12 ΔF/F
- duration of Ca2+ influx (DGGCs [5]; ipsilateral DGGCs): 8.51 ± 0.20 s
- peak amplitude of Ca2+ influx (DGGCs [5]; ipsilateral TBI DGGCs): 4.31±0.58 ΔF/F

— patent US11878012B2, “Compositions and methods for treating traumatic brain injury” (Board of Regents, the University of Texas System, priority 2020, dated 2024)
